The record followed here is EP2766407B1, “PENTABLOCK POLYMERS” (The Curators Of The University Of Missouri, priority 2011, dated 2013).

Assay type in all cases: cell-based
Data set [1] relates to RAW 264.7 (mouse macrophage cell line). The data set is described as follows: MTS assay (cytotoxicity), Pentablock Polymer A protocol. To be noted: RAW 264.7, Triton X control; blank = 100. The method, then: (§1) The cytotoxicity and biocompatibility of the Pentablock Polymer A and Pentablock Polymer B were investigated in several cell lines. ARPE-19 (human retinal pigment epithelial cell line), SIRC (rabbit corneal cell line), and RAW 264.7 (mouse macrophage cell line) were obtained from American Type Culture Collection ("ATCC"). ARPE-19 cells were cultured in Dubelcco's modified Eagle's medium ("DMEM/F12") supplemented with 10% fetal bovine serum ("FBS"), 100 U/mL penicillin and 100 µg/mL of streptomycin. SIRC cells were cultured in minimum essential medium ("MEM") and supplemented with 10% FBS, 100 U/mL of penicillin and 100 µg/mL of streptomycin. RAW 264.7 (Mouse macrophage cells) cells were cultured in DMEM/F12supplemented with 10% FBS, 10% of nonessential amino acids, 100 U/mL penicillin and 100 µg/mL of streptomycin. The pH of the medium was adjusted to 7.4 and cells were incubated in humidified atmosphere at 37 °C temperature with 5% CO2 environment. The cell cultures were exposed directly to different concentrations of Pentablock Polymer A and Pentablock Polymer B. […]
(§2) MTS assay is based on the reduction of the tetrazolium salt (yellow) to fromazone (purple) by mitochondrial enzymes of metabolic active cells. […] After incubation, the absorbance of each well was measured at 450 nm by ELISA plate reader. The absorbance is directly proportional to viability of cells. […]
A general note: Formazan colour is commonly taken as a measure of viable cells.

Data set [2] concerns SIRC (rabbit corneal cell line). The description is as above. To be noted: Triton X control, blank = 100. The method, then: as §1, §2
Data set [3] deals with ARPE-19 (human retinal pigment epithelial cell line). The data set is described as follows: MTS assay (cytotoxicity), Pentablock Polymer B protocol. The note with it: ARPE 19, Triton X control; blank = 100. The method, then:
as §1, §2

A further data set concerns PCEC. Described as above. The note with it: Triton X control, blank = 100. The method, then: Pentablock Polymer B: Cytotoxicity for Pentablock Polymer B was performed at different concentration ranging from 0.5-10 mg/ml. The plates were seeded with cell density of 10,000 cells/100 µL. After 24 hours of incubation fresh medium containing hydrogel of different concentration ranging from 0.5-10 mg/ml were added and further incubated for 24 hours. MTS assay is based on the reduction of the tetrazolium salt (yellow) to fromazone (purple) by mitochondrial enzymes of metabolic active cells. The amount of the fromazone is directly proportional to viable cells. In MTS assay Trioton X treated cells were served as negative control and untreated cells served as positive control. Then, 100 µL of serum free medium containing 20 µL of MTS solution was added to the 96 well plates, and these plates were incubated at 37 °C and 5% CO2 for 4 hours. After incubation, the absorbance of each well was measured at 450 nm by ELISA plate reader. The absorbance is directly proportional to viability of cells. Table 1: MTS assay on Pentablock Polymer A

On to Triton X, for which the MTS assay in data set [1] is listed as 0 ± 0.594; in data set [2] it was 0 ± 0.271; in data set [3], 0.000 ± 0.491; in the data set with PCEC, 0.000 ± 1.099.
